Assay results as given in article PMC12160547, “Identification of a Novel Small Molecule STING Agonist Reshaping the Immunomicroenvironment of Pancreatic Ductal Adenocarcinoma” (International Journal of Biological Sciences, 2025).

Assays:
[1] = system: pancreatic tumor organoids; assay: Pancreatic tumor organoid viability (AO/PI staining, CellTiter-Glo 3D); type: cell-based, human
Description: Pancreatic tumor organoids were derived from patients diagnosed with pancreatic ductal adenocarcinoma at Ruijin Hospital, affiliated with Shanghai Jiao Tong University School of Medicine. Inclusion criteria required a confirmed histopathological diagnosis of pancreatic ductal adenocarcinoma and the absence of prior neoadjuvant treatment. After obtaining informed consent from the patients, tumor tissues were excised during surgery and preserved in a tissue preservation solution (Absin). The tumor samples were promptly minced into small fragments in pre-chilled RPMI-1640 and digested for 20 minutes at 37°C using the Human Tumor Dissociation Kit (Miltenyi Biotec). The resulting single-cell suspension was filtered through a 100-µm mesh (Falcon) and seeded onto Matrigel (Corning). Following a 30-minute incubation at 37°C, OM12 (Omabio) complete organoid medium was added around the periphery of the Matrigel. The tissue-derived cells successfully grew in a three-dimensional format. The viability of the organoids was assessed using CellTiter-Glo® 3D Cell Viability Assay (Promega) reagents. […] Luminescence was subsequently measured using the BioTek Synergy LX multimode reader (Agilent). […] Acridine orange (AO) binds to the nuclei of all cells, emitting green fluorescence, while propidium iodide (PI) penetrates the cell membrane to stain dead cells red. […]

[2] = Metabolite profiling in liver microsomes, 60 min incubation; type: in vitro ADME, mouse; settings: D166 incubated 60 min; selected ion chromatographic peak areas
h-STING = target: T1, h-STING (Homo sapiens, UniProt Q86WV6, G230A/R293Q/R71H); assay: THP1-Dual reporter activation fold; type: cell-based
T1 construct: THP1-Dual Fold (10 μM); endogenous in cells; host or cells: THP1-Dual
T1 sequence (Q86WV6 whole entry R71H/G230A/R293Q): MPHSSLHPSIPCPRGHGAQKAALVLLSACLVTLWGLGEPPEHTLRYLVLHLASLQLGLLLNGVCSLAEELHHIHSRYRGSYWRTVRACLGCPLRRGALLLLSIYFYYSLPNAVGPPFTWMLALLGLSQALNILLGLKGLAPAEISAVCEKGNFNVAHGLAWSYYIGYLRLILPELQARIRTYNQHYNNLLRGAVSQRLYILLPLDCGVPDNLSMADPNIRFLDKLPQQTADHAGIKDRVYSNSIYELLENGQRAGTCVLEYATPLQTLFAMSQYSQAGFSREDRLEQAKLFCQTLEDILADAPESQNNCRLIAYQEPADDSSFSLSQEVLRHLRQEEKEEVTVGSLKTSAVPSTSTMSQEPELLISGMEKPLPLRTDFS

[3] = Metabolite profiling in liver microsomes, 60 min incubation; type: in vitro ADME, human; settings: D166 incubated 60 min; selected ion chromatographic peak areas
[4] = system: pancreatic orthotopic tumor; assay: Pancreatic orthotopic tumor model; type: in vivo, C57BL/6 mice
Description: For the pancreatic orthotopic tumor model, mice were anesthetized using […] (2,2,2-tribromoethanol) (Aladdin), and the pancreas was surgically exposed. Approximately 5 × 10^5 tumor cells suspended in 50 μL PBS were injected into the pancreas. The incision was then closed, and the mice were allowed to recover under close observation. On days 9, 12, and 15, the mice received intraperitoneal injections of three different concentrations of the drug. As with the subcutaneous model, the mice were euthanized on day 25, tumors were collected, weighed, and further analyzed. Additionally, at least 10 mice from each group were randomly selected to undergo the same treatments without euthanasia, and their survival times were recorded to generate survival curves.
Pancreatic orthotopic tumor models were established using mouse pancreatic tumor cell lines (Pan02-luc and KPC-luc). Mice were intraperitoneally injected with 200 µL of D-Luciferin working solution (15 mg/mL) (Yeasen) and continuously anesthetized with isoflurane. Ten minutes after injection, the intensity and distribution of luciferase luminescence were measured using the Tanon ABL-X5 in vivo imaging system. Tumor size was monitored weekly, with consistent exposure times and intensities for imaging.
(§1) Multiplex cytokine detection was performed using Luminex cytokine bead array technology provided by WayenBio, Shanghai. In the mouse tumor model, levels of multiple cytokines were simultaneously measured and normalized to tumor weight. For the quantification of specific cytokines, such as IL-6 and IFN-β, enzyme-linked immunosorbent assay (ELISA) kits from Abclonal were used. The assays were conducted according to the manufacturer's instructions.

cGAS-STING pathway = assay: cGAS-STING pathway, IFN-β and ISG readout in pancreatic cancer organoids; type: cell-based, human
Description: Tumor tissues or cells were thoroughly lysed in RIPA buffer containing protease and phosphatase inhibitors. The lysates were then centrifuged to collect the supernatant. Proteins were separated by electrophoresis in MOPS buffer and subsequently transferred onto a PVDF membrane. After blocking, the membrane was sequentially incubated with the primary antibody, secondary antibody, and chemiluminescent substrate (ECL) for imaging.
RNA from tumor tissues or cells was extracted using the SteadyPure Universal RNA Extraction Kit (Accurate Biology) and reverse transcribed into cDNA with the Evo M-MLV Reverse Transcription Kit (Accurate Biology). Relative RNA expression levels were quantified using 2X Universal SYBR Green Fast qPCR Mix (Abclonal), and the results were recorded on the qTOWER®3 84 Real-Time PCR system.
as §1

[5] = system: subcutaneous pancreatic tumor; assay: Subcutaneous pancreatic tumor model; type: in vivo, C57BL/6 mice
Description: C57BL/6 mice were obtained from Phenotek (Shanghai) and randomly assigned to groups, with a minimum of six mice per group. For the subcutaneous tumor model, approximately 5 × 10^5 tumor cells were suspended in 150 μL PBS and injected into the left flank of the mice. Tumor size was measured every four days starting from day 7 post-injection. On days 9, 12, and 15, the mice were administered three different concentrations of the drug via peritumoral injection, while the Control group received only the solvent. The mice were euthanized on day 25, and tumors were excised, weighed, and further analyzed.
as §1

Structure (SMILES): [2H]C([2H])([2H])Oc1cc2cc(C(=O)CCC(=O)O)sc2cc1OC([2H])([2H])[2H] [D166]
- viability of pancreatic tumor organoids ([1]; increased concentration of D166): decreased viability
- inhibiting organoid viability compared with ADU-S100, MSA-2, SR-717, MK-1454 and DXMAA ([1]; organoids, 10μM): better efficacy
- Relative Peak Area Abundance (%) MLM [2]: 94.2%
- THP1-Dual Fold (10 μM) (h-STING): 60.46 Fold
- Relative Peak Area Abundance (%) HLM [3]: 98.5%
- cytokine levels in the TME, including IL-6, IFN-β, and TNF-α ([4]; higher D166 doses, ELISA): elevated cytokine levels
- inhibition of tumor proliferation, weekly in vivo imaging ([4]; increasing D166 concentrations, compared with DMXAA): more potent effect than DMXAA
- pancreatic tumor progression ([4]; intraperitoneal injection at varying doses): significant dose-dependent inhibition
- activating IFN-stimulated genes (ISGs) compared with ADU-S100, MSA-2, SR-717, MK-1454 and DXMAA (cGAS-STING pathway; organoids, 10μM): better efficacy
- activation of the cGAS-STING pathway and induction of IFN-β (cGAS-STING pathway; pancreatic cancer organoids, different concentration and duration): time- and dose-dependent effect
- IL-6, IFN-β, and TNF-α levels in the TME ([5]; higher D166 doses, ELISA): increased
- tumor growth ([5]; peritumoral injection, different doses): significant dose-dependent inhibitory effect
- antitumor efficacy compared with other STING agonists ([5]; tumor weight, Figure S4A): comparable to that of other STING agonists
